Test results published in patent publication US12344616B2, “Factor XIa inhibitors” (Merck Sharp & Dohme LLC, priority 2018, dated 2025).
Values after ≈ are worked out from the molar mass of the structure shown. Where two headings read alike, the source gives them in different places.

Assays:
human Factor XIa = human Factor XIa (Homo sapiens (Human), UniProt P03951); test: Factor XIa assay; type: biochemical; settings: human Factor XIa 0.04 nM, GPR-AFC substrate, 25° C.; read-out: FXIa IC50
Experimental: (§1) The effectiveness of a compound of the present invention as an inhibitor of Coagulation Factor XIa can be determined using a relevant purified serine protease, and an appropriate synthetic substrate. The rate of hydrolysis of the chromogenic or fluorogenic substrate by the relevant serine protease was measured both in the absence and presence of compounds of the present invention. Assays were conducted at room temperature or at 37° C. […] A decrease in the rate of fluorescence change in the presence of inhibitor is indicative of enzyme inhibition. Such methods are known to one skilled in the art. The results of this assay are expressed as the half-maximal inhibitory concentrations (IC50), or the inhibitory constant, Ki.
Compounds were pre-incubated for 30 minutes at 25° C. with human (0.04 nM) Factor XIa in 50 mM HEPES buffer with 150 mM sodium chloride, 5 mM calcium chloride, 0.1% PEG 8000, pH 7.4. Factor XIa enzymatic activity was determined by addition of the substrate glycine-proline-arginine-7-amido-4-trifluoromethylcoumarin (GPR-AFC) and measurement of the fluorescence at 400/505 nm after a 60 minute incubation at 25° C. The % inhibition for each data point was calculated from the data and analyzed using the log (inhibitor) vs. response four parameters equation to determine the half-maximal inhibitory concentrations (IC50). The IC50 were, converted to equilibrium inhibitory constants (Ki) using the Cheng-Prusoff equation.

[1] = High-throughput (HT) solubility determination; type: physicochemical; settings: kinetic from dmso stock
Experimental: The chromatographic system consists of an Agilent 1290 UPLC/DAD system and ChemStation software, both from Agilent Technologies, USA. The separations are carried out on a Supelco Ascentis Express C18, 30 mm×3.0 mm I.D., 2.7 μm HPLC column. The mobile phase consists of Potassium phosphate buffered at pH 7 (mobile phase A) and acetonitrile (mobile phase B). The column oven temperature is set to 30° C. and the UPLC analysis consists of a gradient. The injection volume is 2 μL and the spectrophotometric detection is set to 215 and 238 nm.
A 10 mM stock solution of the compound in DMSO is supplied for analysis. 2.5 μL of stock solution (10 mM) was diluted into 247.5 μL of organic co-solvents (10% MeCN/80% MeOH/10% DMSO, v/v/v) to create a standard solution of 100 μM. To create the solubility solutions, 4.1 μL of 10 mM DMSO stock solution was diluted into […] (PBS) (pH 7) solution. A second 4.1 μL aliquot of 10 mM DMSO stock solution was added to 196 μL of PBS (pH 2) solution. A third 4.1 μL aliquot of 10 mM DMSO stock solution was added to 196 μL of FaSSIF (pH 6.5) solution. Each solubility solution was sealed and shaken for 24 hours at 25° C. Filtered the equilibrated solubility solutions by centrifugation using a filter (0.45 μm, polypropylene). Placed 50 μL each of the 100 μM standard solution and the filtered equilibrated solubility solutions into a 384 well plate, and the plate was subsequently heat sealed.
Analyzed each standard and solubility solution by UPLC/DAD. The solubility value was calculated by the following equation: Solubility=(Peak area of sample/Peak area of standard)(Standard concentration)

[2] = target: Human Norepinephrine Transporter (NET) (Homo sapiens (Human), UniProt P23975); test: Norepinephrine Transporter functional antagonist uptake assay; type: cell-based; settings: [3H]Norepinephrine uptake, MDCK cells expressing human recombinant NET
Human Norepinephrine Transporter (NET), sequence (P23975 whole entry): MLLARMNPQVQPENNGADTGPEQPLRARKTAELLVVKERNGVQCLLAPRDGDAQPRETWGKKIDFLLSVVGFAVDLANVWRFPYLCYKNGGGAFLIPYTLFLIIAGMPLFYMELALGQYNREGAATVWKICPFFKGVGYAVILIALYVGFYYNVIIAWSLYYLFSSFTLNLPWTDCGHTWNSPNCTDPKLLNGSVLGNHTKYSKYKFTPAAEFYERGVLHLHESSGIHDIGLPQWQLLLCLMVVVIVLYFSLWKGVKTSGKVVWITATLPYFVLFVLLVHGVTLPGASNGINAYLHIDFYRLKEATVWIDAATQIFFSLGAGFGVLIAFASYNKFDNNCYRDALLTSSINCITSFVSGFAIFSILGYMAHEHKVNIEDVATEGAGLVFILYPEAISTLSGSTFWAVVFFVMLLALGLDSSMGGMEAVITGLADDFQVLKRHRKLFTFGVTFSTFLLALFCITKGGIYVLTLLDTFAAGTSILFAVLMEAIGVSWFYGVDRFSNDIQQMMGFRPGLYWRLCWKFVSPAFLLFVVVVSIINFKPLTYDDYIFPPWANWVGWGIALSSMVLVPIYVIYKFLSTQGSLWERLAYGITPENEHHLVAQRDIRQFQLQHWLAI
Experimental: Human Norepinephrine Transporter (NET) Functional Antagonist Uptake Assay was carried out at Panlabs Cerep (assay #302100). Human recombinant norepinephrine transporter expressed in MDCK cells were plated overnight. Test compound and/or vehicle was pre-incubated with cells (2×10E5/ml) in modified Tris-HEPES buffer pH 7.1 for 20 minutes at 25° C. and 25 nM [3H]Norepinephrine was then added for an additional 15 minute incubation period. A lysate was obtained from solubilized cells and counted to determine [3H]Norepinephrine uptake. Reduction of [3H]Norepinephrine uptake by 50 percent or more (≥50%) relative to 10 μM desipramine indicates significant inhibitory activity. Compounds are screened at 10, 3, 1, 0.3, 0.1, 0.03, 0.01 and 0.003 μM. These same concentrations are concurrently applied to a separate group of untreated cells and evaluated for possible compound-induced cytotoxicity only if significant inhibition of uptake is observed. IC50 values were determined by a non-linear, least squares regression analysis using MathIQ™ (IDBusiness Solutions Ltd., UK).

Human plasma kallikrein = Human plasma kallikrein (Homo sapiens (Human), UniProt P03952); test: Kallikrein assay (plasma kallikrein, pKal); type: biochemical; settings: purified Human plasma kallikrein 0.5 nM, Acetyl-K-P-R-AFC substrate
Human plasma kallikrein, sequence (P03952 391-638): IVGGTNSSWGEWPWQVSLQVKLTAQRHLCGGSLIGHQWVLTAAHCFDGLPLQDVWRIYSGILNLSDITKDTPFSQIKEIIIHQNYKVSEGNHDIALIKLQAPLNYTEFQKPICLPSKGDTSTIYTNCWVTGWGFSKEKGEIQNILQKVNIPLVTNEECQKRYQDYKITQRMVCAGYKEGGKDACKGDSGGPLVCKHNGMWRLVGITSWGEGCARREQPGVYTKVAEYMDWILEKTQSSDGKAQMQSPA
Human plasma kallikrein, sequence (P03952 20-390 partner): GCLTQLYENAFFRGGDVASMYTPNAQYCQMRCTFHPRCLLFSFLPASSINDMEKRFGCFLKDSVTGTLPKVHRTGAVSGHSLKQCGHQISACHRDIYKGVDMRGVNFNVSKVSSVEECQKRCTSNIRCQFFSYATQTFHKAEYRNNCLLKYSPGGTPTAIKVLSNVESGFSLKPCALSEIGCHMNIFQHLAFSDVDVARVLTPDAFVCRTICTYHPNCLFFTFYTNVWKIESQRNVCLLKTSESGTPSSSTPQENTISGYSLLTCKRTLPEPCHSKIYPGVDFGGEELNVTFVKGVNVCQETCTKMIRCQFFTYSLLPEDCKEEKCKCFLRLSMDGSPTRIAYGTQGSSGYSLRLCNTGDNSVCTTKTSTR
Experimental: as §1, with “Kallikrein” for “Coagulation Factor XIa”, “[…] Determinations were made using purified Human plasma kallikrein at a final concentration” for “The results”, “0.5 nM (Enzyme Research Laboratories) and” for “this assay are expressed as”, “synthetic substrate, Acetyl-K—P—R-AFC (Sigma #C6608) at a concentration of […].” for “half-maximal inhibitory concentrations (IC50), or the inhibitory constant, Ki.”
Activity assays were performed by diluting a stock solution of substrate at least tenfold to a final concentration ≤0.2 Km into a solution containing enzyme or enzyme equilibrated with inhibitor. Times required to achieve equilibration between enzyme and inhibitor were determined in control experiments. The reactions were performed under linear progress curve conditions and fluorescence increase measured at 405 Ex/510 Em nm. Values were converted to percent inhibition of the control reaction (after subtracting 100% Inhibition value). IC50 was determined by inflection point from a four parameter logistic curve fit. Ki was calculated using the Cheng Prusoff equation, Ki=IC50/(1+([S]/Km)).

[3] = FaSSIF pH 6.5, 24 hours at 25° C., read-out: pH 6.5 (FaSSIF) solubility
[4] = phosphate buffered saline (PBS) pH 2, aqueous buffer, PBS pH 2, 24 hours at 25° C., read-out: pH 2 solubility

human Factor XIa, sequence (P03951 388-625): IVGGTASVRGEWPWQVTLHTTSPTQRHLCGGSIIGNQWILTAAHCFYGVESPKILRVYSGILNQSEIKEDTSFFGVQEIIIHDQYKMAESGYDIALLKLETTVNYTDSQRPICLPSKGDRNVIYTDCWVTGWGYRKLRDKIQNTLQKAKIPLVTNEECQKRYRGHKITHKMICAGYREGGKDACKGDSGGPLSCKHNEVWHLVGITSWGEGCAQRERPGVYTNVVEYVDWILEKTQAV
human Factor XIa, sequence (P03951 19-387 partner): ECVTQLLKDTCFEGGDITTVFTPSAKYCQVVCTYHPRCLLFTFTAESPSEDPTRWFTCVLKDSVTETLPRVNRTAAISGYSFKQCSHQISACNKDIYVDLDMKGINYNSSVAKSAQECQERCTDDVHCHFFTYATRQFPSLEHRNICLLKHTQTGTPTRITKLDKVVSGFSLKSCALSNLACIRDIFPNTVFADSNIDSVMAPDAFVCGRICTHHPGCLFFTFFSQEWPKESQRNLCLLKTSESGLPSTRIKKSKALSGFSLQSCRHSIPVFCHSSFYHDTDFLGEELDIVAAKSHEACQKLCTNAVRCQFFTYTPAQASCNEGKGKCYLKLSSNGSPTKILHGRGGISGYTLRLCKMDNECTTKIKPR

## COC(=O)Nc1ccc2c(c1)NC(=O)C(C)(C)CCC[C@H](c1ccc(-c3c(-n4cc(C(F)(F)F)cn4)ccc(F)c3F)c[n+]1[O-])c1nc-2c(C)[nH]1 [Example 1, (R,Z)-5-(2,3-difluoro-6-(4-(trifluoromethyl)-1H-pyrazol-1-yl)phenyl)-2-(2^4-((methoxycarbonyl)amino)-1^5,5,5-trimethyl-4-oxo-1^1H-3-aza-1(4,2)-imidazola-2 (1,2)-benzenacyclononaphane-9-yl)pyridine 1-oxide]
Human Factor XIa
  IC50: 1.5 nM
[1]; [3]
  solubility kinetic at 24 h: 36 µM (≈ 25.5 µg/mL)
[1]; [4]
  solubility kinetic at 24 h: > 200 µM
[2]
  IC50: > 10000 nM
Human plasma kallikrein
  IC50: 480 nM

## COC(=O)Nc1ccc2c(c1)NC(=O)C(C)(C)CCC[C@H](c1ccc(-c3cc(F)ccc3-n3cc(C(F)(F)F)cn3)c[n+]1[O-])c1nc-2c(C)[nH]1 [Example 2, (R.Z)-5-(5-fluoro-2-(4-(trifluoromethyl)-1H-pyrazol-1-yl)phenyl)-2-(2^4-((methoxycarbonyl)amino)-1^5,5,5-trimethyl-4-oxo-1^1H-3-aza-1(4,2)-imidazola-2(1,2)-benzenacyclononaphane-9-yl)pyridine 1-oxide]
Human Factor XIa
  IC50: 2.9 nM
[1]; [3]
  solubility kinetic at 24 h: 53 µM (≈ 36.7 µg/mL)
[1]; [4]
  solubility kinetic at 24 h: 209 µM (≈ 145 µg/mL)
[2]
  IC50: > 10000 nM
Human plasma kallikrein
  IC50: 1080 nM

## COC(=O)Nc1ccc2c(c1)NC(=O)C(C)(C)CCC[C@H](c1ccc(-c3cc(Cl)ccc3-n3cc(C(F)(F)F)cn3)c[n+]1[O-])c1nc-2c(C)[nH]1 [Example 3]
Human Factor XIa
  IC50: 0.89 nM
[1]; [3]
  solubility kinetic at 24 h: 27 µM (≈ 19.1 µg/mL)
[1]; [4]
  solubility kinetic at 24 h: 159 µM (≈ 113 µg/mL)
[2]
  IC50: > 10000 nM
Human plasma kallikrein
  IC50: 42 nM

## COC(=O)Nc1ccc2c(c1)NC(=O)C(C)(C)CCC[C@H](c1ccc(-c3cc(Cl)ccc3-n3cc(C(F)F)cn3)c[n+]1[O-])c1nc-2c(C)[nH]1 [Example 4, (R,Z)-5-(5-chloro-2-(4-(difluoromethyl)-1H-pyrazol-1-yl)phenyl)-2-(2^4-((methoxycarbonyl)amino)-1^5,5,5-trimethyl-4-oxo-1^1H-3-aza-1(4,2)-imidazola-2(1,2)-benzenacyclononaphane-9-yl)pyridine 1-oxide]
Human Factor XIa
  IC50: 0.9 nM
[1]; [3]
  solubility kinetic at 24 h: 44 µM (≈ 30.4 µg/mL)
[1]; [4]
  solubility kinetic at 24 h: 166 µM (≈ 115 µg/mL)
[2]
  IC50: 6500 nM
Human plasma kallikrein
  IC50: 46 nM

## COC(=O)Nc1ccc2c(c1)NC(=O)C(C)(C)CCC[C@H](c1ccc(-c3cc(F)ccc3-c3cnn(C(F)(F)F)c3)c[n+]1[O-])c1nc-2c(C)[nH]1 [Example 5, (R,Z)-5-(5-fluoro-2-(1-(trifluoromethyl)-1H-pyrazol-4-yl)phenyl)-2-(2^4-((methoxycarbonyl)amino)-1^5,5,5-trimethyl-4-oxo-1^1H-3-aza-1(4,2)-imidazola-2(1,2)-benzenacyclononaphane-9-yl)pyridine 1-oxide]
Human Factor XIa
  IC50: 2 nM
[1]; [3]
  solubility kinetic at 24 h: 50 µM (≈ 34.6 µg/mL)
[1]; [4]
  solubility kinetic at 24 h: 146 µM (≈ 101 µg/mL)
[2]
  IC50: > 10000 nM
Human plasma kallikrein
  IC50: 371 nM

## COC(=O)Nc1ccc2c(c1)NC(=O)C(C)(C)CCC[C@H](c1ccc(-c3cc(Cl)cnc3OC(F)F)c[n+]1[O-])c1nc-2c(C)[nH]1 [Example 6, (R,Z)-5′-chloro-2′-(difluoromethoxy)-6-(2^4-((methoxycarbonyl)amino)-1^5,5,5-trimethyl-4-oxo-1^1H-3-aza-1(4,2)-imidazola-2(1,2)-benzenacyclononaphane-9-yl)-[3,3′-bipyridine]1-oxide]
Human Factor XIa
  IC50: 4.4 nM
[1]; [3]
  solubility kinetic at 24 h: 55 µM (≈ 35.3 µg/mL)
[1]; [4]
  solubility kinetic at 24 h: 143 µM (≈ 91.7 µg/mL)
[2]
  IC50: 180 nM
Human plasma kallikrein
  IC50: 443 nM
